Data on two compounds can be found in patent US4363812A, “3-(Tetrazol-5-yl), 4-methyl-8-alkoxy coumarins and anti-allergic compositions thereof” (priority 1978, dated 1982).

In data set [1] the test system is passive cutaneous anaphylaxis (PCA) mediated by homocytotropic antibodies (HTA). In words: passive cutaneous anaphylaxis (PCA) test, oral, in rats. The format is in vivo, rat (Wistar). Conditions: for minimal effective dose: Rattus norvegicus. As to the method:
With respect to the present 3-(1H-tetrazol-5-yl)coumarin derivatives, there was tested antiallergic activity concerning passive cutaneous anaphylaxis (PCA) mediated by homocytotropic antibodies (HTA) in rats.
(i) Preparation of antisera
2,4-Dinitrophenyl-coupled ascaris extract (DNP-As) used as antigen, was prepared according to the methods of Strejan et al [cf. J. Immunol., Vol. 98, 893(1967)] and Eisen [cf. J. Amer. Chem. Soc., Vol. 75. 4593(1953)]. Antisera containing HTA were prepared in rats according to the method of Tada and Okumura [cf. J. Immunol., Vol. 106, 1002(1971)] as follows:
Female wister rats weighing 180 to 200 g. were splenectomized and several days later immunized by injecting into all four footpads a total of 1 mg. of DNP-As mixed with 10^10 Bordetella pertussis. After 5 days, 0.5 mg. of DNP-As alone was injected subcutaneously into the back of rats. Eight days after the first immunization, blood was collected by aortic puncture under ether anaesthesea and antisera obtained by these procedures were pooled and stored at -80° C.
The titer of the pooled autiserum was determined in rats by the 72 hr. PCA which method was described in the following item (ii), i.e. the highest dilution of antiserum producing a diameter of approximately 5 mm. was usually 1:500.
(ii) Assessment of PCA in rats
Normal wister rats weighing 140 to 160 g. were sensitized passively by injection intradermal on the shaved back skin 0.05 ml. of the diluted antisera (1:30). After 72 hours, the animals were injected intravenously 1 ml. of physiological salt solution containing 2 mg. DNP-As and 2.5 mg. Evans' blue.
The present compounds to be tested were given orally 30 minutes before antigen challenge. The animals were exsanguinated 30 minutes after challenge with the antigens and the skins were exfoliated. The intensities of PCA were evaluated by measuring the amount of leaked dye. The amount of dye leaked as a result of PCA was extracted according to the method of Harada et al [cf. Jpn. J. Allergol., Vol. 15, 1(1966)] and measured photometrically.

A short description of data set [2]: acute toxicity, oral, in mice. Conditions: mouse, in vivo, po. The format is in vivo. As to the method:
(§1) Moreover, the introduction of substituent groups such as an alkoxyl group, an alkenyloxy group and hydroxyl group to the 5, 6, 7 or 8 position of the coumarin ring brings the decrease of toxicity.
(§2) With respect to the present 3-(1H-tetrazol-5-yl)coumarin derivatives, there was tested acute toxicity in mice.
(§3) After normal female Slc: ddy mice 4 weeks old were purchased and fed preliminarily in this lavoratory for a week, these mice weighing 25-27 g. were used in the test. The present compounds to be tested, were suspended in a 10% gum arabic solution and administered orally […]. body weight to mice. Each dose level was given to a group of ten animals and the survivors were kept under observation for 6 days. The numbers of dead animals were counted and the LD50 values in mg./kg. body weight were calculated by the method of Litchfield-Wilcoxon.

Another data set relates to experimental asthma. As to the kind of experiment: model of experimental asthma in animals. The format is in vivo. The following applies: oral administration.
Another data set relates to mice. In words: acute toxicity, oral, in mice. Conditions: Table 4; oral, female Slc: ddy mice, 6 days observation, Litchfield-Wilcoxon; 8640 min. The format is in vivo. As to the method:
as §1, §2, §3

A word on the LD50: it is the dose expected to kill half of the subjects tested.

Where a name gives a salt, the structure may show the parent alone. Read-outs that look alike come from different tables or passages of the source.

In the case of `CCCCCCOc1cccc2cc(-c3nnn[nH]3)c(=O)oc12` [Example 10, 8-n-Hexyloxy-3-(1H-tetrazol-5-yl)coumarin], the minimal effective dose in data set [1] (po, read-out: MED (minimum effective dose)) was determined as 1.56 mg/kg; in data set [1] (read-out: MED (minimum effect dose)), 1.56 mg/kg. Besides, the LD50 at 144 h stood at 2650 mg/kg in data set [2] (LD50 (50% lethal dose), Table 1, orally in mice) and 2650 mg/kg in data set [2] (Table 4, oral, female Slc: ddy mice, 6 days observation, Litchfield-Wilcoxon, read-out: LD50). Moreover, the “therapeutic effect in experimental asthma” value in the data set with experimental asthma is “shows a therapeutic effect”.

As for `CCCCOc1cccc2cc(-c3nnn[nH]3)c(=O)oc12` [Example 31, Sodium salt of 8-n-butoxy-3-(1H-tetrazol-5-yl)coumarin], the “MED (minimum effect dose)” value in data set [1] (Table 3, oral 30 minutes before antigen challenge, rats, lowest dose significantly decreasing leaked dye vs control) stood at 1.56 mg/kg. The compound also registered an LD50 in the data set on mice of 2470 mg/kg.
